The text below walks through data of patent US20150209275A1, “Fast Dissolving Ocular Insert” (UNIVERSITY OF THE WITWATERSRAND, JOHANNESBURG, priority 2012, published 2015).

The conditions of data set [1]: as an oral drug; cited from earlier work.
The subject of another data set is CAM. In words: Modified Hen Egg Chorioallontoic (HET-CAM) ocular toxicity test. Conditions: 0.3 mL sample on CAM, 5 minutes. Here is the method: The methodology involved using hen's eggs (50-60 g fertile) that were purchased from a local hatchery (Bruce Hatcheries, South Africa) and less than a week old. The eggs were placed in commercial incubators (Surehatch, Brakenfell, South Africa) and rotated every 12 hours. On day 3, a hole was made and the albumin was removed. The eggs were sealed by sterile heated parafilm and left in an equatorial position. On day 5 and everyday thereafter eggs were candled for viability and non-viable ones were discarded. On day 10, a window (2×2 cm) was made and 2-3 mL saline (0.9% NaCl) was added and eggs were returned to the incubator. […] The eggs were then dosed with 0.3 mL of samples and observed for 5 minutes for any effects of injury in accordance with Table 11 and this was noted. Saline was used as a control for comparison purposes. Eggs were scored for severity of any reaction and time taken to occur (Table 11). At the end of the assay the embryos were discarded immediately by placing the eggs into a freezer −80° C. The following features were used for observation of injury: hemorrhage, vascular lysis and coagulation. FIG. 9 depicts the procedure for the test.
The period taken for any untoward reaction to occur was noted and the irritation threshold was determined ([…] concentration of samples required for a minimal reaction to occur). The irritation score was calculated by means of Equation 4.

The test system of another data set is Excised rabbit corneas. In words: Ex vivo permeation, Franz diffusion cell. The class given is in vitro ADME. Conditions: excised rabbit cornea. Here is the method: Franz diffusion cell apparatus was used to conduct ex vivo permeation studies. Excised rabbit corneas (11.83±0.04 mm in diameter and area […]) were mounted on the Franz diffusion cell apparatus (Permagear, Arnie Systems, USA) connected to a heating bath system for temperature control. The diffusion cell donor chamber was filled with 2 mL Simulated tear (lacrimal) fluid (SLF) (Gonjari et al., 2009) (which was maintained to simulate tear volume). 12 mL Simulated Aqueous Humor (SAH, pH 7.4, 37° C.) (Giannola et al., 2007) solution was contained in the receptor chamber. The cornea was placed such that the surface was in contact with the receptor solution which was continuously stirred by a magnetic stirrer at 20 rpm to simulate blinking. […] Aliquots of sample were withdrawn from the receptor compartment at regular intervals (30, 60, 120, 180, 240 minutes and 24 hours after insertion) and replaced with an equal volume of dissolution medium. Samples were then subjected to the quantification of drug through spectrophotometric analysis at 295 nm (Hewlett Packard 8453 Spectrophotometer, Germany) to determine the drug release and flux (rate of drug permeation per unit area). Drug flux values were calculated at the steady state per unit area by regression analysis of permeation. Drug flux values were calculated employing Equation 7. […]

Take `CC(C)(C)NC[C@H](O)COc1nsnc1N1CCOCC1` [timolol]: in data set [1], the BCS class result is given as “class 1”.

Take `CCCCCCCCCCCCOS(=O)(=O)[O-].[Na+]` [SDS, Sodium Dodecyl Sulphate]: the “HET-CAM Inference” value in the data set with CAM is “Severe”. In addition, the “IS (irritation score)” value in the data set on CAM (scale 0-21, mean of 3 values, Sulphate) amounted to 10.4. Moreover, in the data set on CAM (score 0-3 per Table 11, mean of 3 values), the “HET-CAM Score” value was 2.5.

On to “Timolol maleate salt [Pure drug dispersion]”, for which the “steady state drug flux” value in the data set with Excised rabbit corneas (SLF donor, SAH pH 7.4, 37° C. receptor) worked out at 0.000378 mg.cm^−2.min^−1. In addition, the “Kp (permeability co-efficient)” value in the data set on Excised rabbit corneas (mean of 3 values) was 2 ×10⁻⁶ cm/s.
